Experiment [1] deals with T1, von Hippel-Lindau disease tumor suppressor/Nuclear receptor coactivator 4 (Homo sapiens, UniProt P40337+Q13772). As to the kind of experiment: PROTAC activity at NCOA4/VHL in human HeLa cells assessed as induction of NCOA4 degradation at 50 nM measured for 24 hrs by Western blot analysis. Format: cell-based. In general terms: A western blot detects proteins with antibodies after separation by electrophoresis.

For experiment [2], the target named is T1, von Hippel-Lindau disease tumor suppressor/Nuclear receptor coactivator 4. As to the kind of experiment: PROTAC activity at NCOA4/VHL in human HeLa cells assessed as induction of NCOA4 degradation at 4 uM measured for 24 hrs by immunoprecipitation analysis. Format: cell-based.
In experiment [3] the test system is AML12. As to the kind of experiment: Protection against CCl4-induced ferroptosis in mouse AML12 cells assessed as cell viability. Format: functional, cell-based.

The source made the active and inactive calls. The calls are words filed in the database; no cut-off is given here. Residues, ends and D or L forms follow the SMILES beside them. *: point of attachment. Cbz = O=C(OCc1ccccc1)*

T1 sequence (P40337 whole entry, looked up): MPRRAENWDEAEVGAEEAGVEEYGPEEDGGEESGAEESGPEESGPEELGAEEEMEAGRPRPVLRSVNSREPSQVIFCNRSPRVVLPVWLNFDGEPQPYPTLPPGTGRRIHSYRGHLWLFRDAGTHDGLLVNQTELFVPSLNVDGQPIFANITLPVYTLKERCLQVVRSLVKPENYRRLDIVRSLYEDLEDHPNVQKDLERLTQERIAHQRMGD
T1 sequence (Q13772 whole entry, looked up): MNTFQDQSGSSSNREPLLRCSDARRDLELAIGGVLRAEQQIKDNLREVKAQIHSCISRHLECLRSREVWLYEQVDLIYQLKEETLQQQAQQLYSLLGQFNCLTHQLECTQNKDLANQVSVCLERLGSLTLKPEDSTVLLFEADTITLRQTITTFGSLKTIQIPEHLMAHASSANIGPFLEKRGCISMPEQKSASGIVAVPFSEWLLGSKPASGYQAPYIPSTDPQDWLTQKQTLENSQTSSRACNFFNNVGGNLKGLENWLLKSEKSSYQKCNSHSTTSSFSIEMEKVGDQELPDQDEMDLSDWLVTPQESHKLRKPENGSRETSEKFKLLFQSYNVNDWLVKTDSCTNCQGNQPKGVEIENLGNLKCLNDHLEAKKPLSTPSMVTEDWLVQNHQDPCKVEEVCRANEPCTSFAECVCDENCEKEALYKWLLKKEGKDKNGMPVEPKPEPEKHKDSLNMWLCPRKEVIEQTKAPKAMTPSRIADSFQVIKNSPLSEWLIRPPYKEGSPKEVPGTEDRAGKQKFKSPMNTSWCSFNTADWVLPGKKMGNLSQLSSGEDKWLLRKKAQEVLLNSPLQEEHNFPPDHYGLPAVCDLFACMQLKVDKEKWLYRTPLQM

For `CN1CCN(c2ccc3nc(-c4cccc(N5CCc6cc(F)ccc6C5)c4)[nH]c3c2)CC1`, the result in experiment [1] was Active.
For the compound `CC(C)C[C@@H](C=O)NC(=O)[C@H](CC(C)C)NC(=O)[C@H](CC(C)C)NC(=O)OCc1ccccc1` (Cbz-Leu-Leu-Leu-aldehyde), the result in experiment [2] was Active.
Consider `CC(=O)N(O)CCCCCNC(=O)CCC(=O)N(O)CCCCCNC(=O)CCC(=O)N(O)CCCCCN` [DEFEROXAMINE], for which, in experiment [3], the EC50 (as a rule, the concentration giving half of the maximal effect) came out at 8.83 µM.
As to `CCOC(=O)c1ccc(NC2CCCCC2)c(N)c1`, the EC50 in experiment [3] is 0.104 µM.
